{
  "source": "patent US20150196022A1",
  "about": "“ABSORBENT PAD HAVING THREE OR MORE MODULES TO ENHANCE PRESERVATION OF FLOWERS” (Paper-Pak Industries, priority 2014, published 2015)",
  "assay": "Na2S2O5 in an open environment: SO2 concentration in air measured daily",
  "assay_type": "physicochemical",
  "protocol": "FIG. 12A and FIG. 12B show the results of a test that was performed to establish how Na2S2O5 reacts with the environment, and the effect of changes in relative humidity.\n0.1 g of Na2S2O5 on sampling “boats” were placed on top of a counter; i.e., in an “open” environment. The concentration of SO2 gas (in parts per million, ppm) in the air at about 2.5 cm (about 1″) above the Na2S2O5 was measured daily for more than 50 days of testing. The relative humidity was also measured for each day of testing.\nThis is in agreement with the known chemistry of Na2S2O5.",
  "data": [
    {"smiles": "O=S([O-])S(=O)(=O)[O-].[Na+].[Na+]", "note": "[Na2S2O5, sodium metabisulfite]", "values": [
      {"measurement": "average SO2 concentration generated", "setting": "0.1 g Na2S2O5, open environment, about 2.5 cm above sample, up to 50 days", "value": 0.5, "unit": "ppm"},
      {"measurement": "duration of continuous SO2 generation", "setting": "summary of the several tests", "value": "more than 50 days"}
    ]}
  ]
}
